We go through seven compounds from patent US7449570B2, “Use of nucleoside compounds for nonsense suppression and the treatment of genetic diseases” (PTC Therapeutics, Inc., priority 2002, dated 2008).

Experiment [1] has as its system luciferase reporter construct containing a UGA premature termination codon. The experiment in a line: cell-based luciferase reporter assay (nonsense suppression). Details: key: Compounds which were found to have either or both very high potency and very high efficacy of protein synthesis are classified as “***”; Compounds which were found to have significant potency and/or efficacy of protein synthesis were classified as “**”; compounds which were found to have potency and/or efficacy of protein synthesis were classified as “*”. Conditions: UGA premature termination codon luciferase reporter stably transfected in 293T Human Embryonic Kidney cells; qualitative potency/efficacy of protein synthesis; gentamicin internal standard. As to the method: Activity measurements in Table 1 were performed in a cell-based luciferase reporter assay (as described in Section 4.2) comprising a luciferase reporter construct containing a UGA premature termination codon that was stably transfected in 293T Human Embryonic Kidney cells. Gentamicin, a small molecule known to allow readthrough of premature termination codons, was used as an internal standard. Activity measurements are based on the qualitative ratio between the minimum concentration of compound required to produce a given protein in a cell versus the amount of protein produced by the cell at that concentration.
The test compounds identified in the nonsense suppression assay (for convenience referred to herein as a compound of the invention) can be tested for biological activity using host cells containing or engineered to contain the target RNA element coupled to a functional readout system. For example, the lead compound can be tested in a host cell engineered to contain the RNA with the premature translation termination codon controlling the expression of a reporter gene. In this example, the lead compounds are assayed in the presence or absence of the RNA with the premature translation termination codon. Compounds that modulate premature translation termination and/or nonsense-mediated mRNA decay in vivo will result in increased expression of the full-length gene, i.e., past the premature termination codon. Alternatively, a phenotypic or physiological readout can be used to assess activity of the target RNA with the premature translation termination codon in the presence and absence of the lead compound. Both the in vitro and in vivo nonsense suppression assays used herein and as described in International Patent Publication WO 01/44516, which is incorporated by reference herein in its entirety, can be used to identify lead compounds and can also be used to determine an EC50 for the lead compounds.
A stable cell line harboring the UGA nonsense-containing luciferase gene is treated with a test compound. Cells are grown in standard medium supplemented with 1% penicillin-streptomycin (P/S) and 10% fetal bovine serum (FBS) to 70% confluency and split 1:1 the day before treatment. The next day, cells are trypsinized and 40,000 cells are added to each well of a 96-well tissue culture dish. Serial dilutions of each compound are prepared to generate a six-point dose response curve spanning 2 logs (30 μM to 0.3 μM). The final concentration of the DMSO solvent remains constant at 1% in each well. Cells treated with 1% DMSO serve as the background standard, and cells treated with gentamicin serve as a positive control.
Background: A reporter such as luciferase makes a cellular process visible.

In experiment [2] the test system is lysosomal tripeptidyl-peptidase 1 (TPP-I). Conditions: patient-derived LINCL cell line, compound heterozygous for Arg208Stop and a different rare nonsense mutation; Sleat et al. 2001; cited from earlier work.

As to `Nc1ncnc(N[C@@H]2C[C@H](CO)[C@@H](O)[C@H]2O)c1[N+](=O)[O-]` [Compound 6, (1R,2S,3R,5R)-3-(6-Amino-5-nitro-pyrimidin-4-ylamino)-5-hydroxymethyl-cyclopentane-1,2-diol], the Activity in experiment [1] was determined as 0.

Consider `Nc1ncnc(N[C@H]2C[C@@H](CO)[C@H](O)[C@@H]2O)c1[N+](=O)[O-]` [Compound 7, (1S,2R,3S,5S)-3-(6-Amino-5-nitro-pyrimidin-4-ylamino)-5-hydroxymethyl-cyclopentane-1,2-diol], for which the Activity in experiment [1] was determined as 0.

For `Nc1ncnc(N[C@H]2O[C@H](CO)[C@@H](O)[C@H]2O)c1[N+](=O)[O-]` [Compound 22, 6-amino-5-nitro-4-(α-D-ribofuranosylamino)-pyrimidine], the Activity result in experiment [1] is “***”.

On to `Nc1ncnc(N[C@@H]2O[C@H](COC(=O)c3ccccc3)[C@@H](OC(=O)c3ccccc3)[C@H]2OC(=O)c2ccccc2)c1[N+](=O)[O-]` [Compound 24, 6-Amino-5-nitro-4-[(2,3,5-tri-O-benzoyl-β-D-ribofuranosyl)amino]pyrimidine], for which, in experiment [1], the Activity result is recorded as “**”.

Compound `COC(=O)c1c(Cl)ncnc1N[C@@H]1O[C@H](CO)[C@@H](O)[C@H]1O` [Compound 26, Methyl 6-chloro-4-(β-D-ribofuranosylamino)pyrimidine-5-carboxylate] gave an Activity in experiment [1] of 0.

Take `COC(=O)c1c(N)ncnc1N[C@H]1O[C@H](CO)[C@@H](O)[C@H]1O` [Compound 27, Methyl 6-amino-4-(α-D-ribofuranosylamino)pyrimidine-5-carboxylate]: in experiment [1], the Activity result is reported as “*”.

For the compound gentamicin, the “normal levels of TPP-I maximally restored” value in experiment [2] is reported as “approximately 7%”.
